Assay results reported in ChEMBL document CHEMBL1125696, “Synthesis and structure-activity relationships of deltorphin analogues” (J Med Chem, 1991).
Non-standard residues stand in square brackets, D forms with d. Residues, ends and D or L forms follow the SMILES beside them. Abu = CC[C@H](N)C(=O)O

Key:
[1] = (§1) IC50 ratio is GPI/MVD; format: functional
[2] = target: T1, Delta-type opioid receptor (Mus musculus, UniProt P32300); test: In vitro opioid receptor delta mediated mouse vas deferens (MVD) assay; format: tissue-based
[3] = target: T2, Delta-type opioid receptor (Rattus norvegicus, UniProt P33533); test: Displacement of [3H]DSLET from delta opioid receptor in rat brain membrane; format: cell membranes
[4] = target: T3, Mu-type opioid receptor (Cavia porcellus, UniProt P97266); test: Inhibition of opioid receptor mu in guinea pig ileum (GPI); format: tissue-based
[5] = target: T4, Mu-type opioid receptor (Rattus norvegicus, UniProt P33535); test: Displacement of [3H]- DAGO from opioid receptor mu in rat brain membrane; format: cell membranes
[6] = target: T3, Mu-type opioid receptor; test: Compound is tested in vitro in guinea pig ileum (GPI) assay mediated by Opioid receptor mu 1; format: tissue-based
[7] = target: T2, Delta-type opioid receptor; test: Opioid receptor binding affinity in rat brain membrane preparations by the displacement of [3H]DSLET (Opioid receptor delta 1-selective radioligand); format: cell membranes
[8] = target: T4, Mu-type opioid receptor; test: Opioid receptor mu 1 binding affinity in rat brain membrane preparations by the displacement of [3H]- DAGO; format: cell membranes
[9] = as §1
[10] = target: T1, Delta-type opioid receptor; test: Compound is tested in vitro in mouse vas deferens (MVD) assay mediated by Opioid receptor delta 1; format: tissue-based
[11] = IC50 ratio is [3H]- DAGO/[3H]-DSLET
[12] = target: T2, Delta-type opioid receptor; test: Opioid receptor binding affinity in rat brain membrane preparations by the displacement of [3H]- DPDPE (Opioid receptor delta 1-selective radioligand); format: cell membranes
[13] = target: T2, Delta-type opioid receptor; test: Displacement of [3H]- DPDPE from delta opioid receptor in rat brain membrane; format: cell membranes

T4 sequence (P33535 whole entry): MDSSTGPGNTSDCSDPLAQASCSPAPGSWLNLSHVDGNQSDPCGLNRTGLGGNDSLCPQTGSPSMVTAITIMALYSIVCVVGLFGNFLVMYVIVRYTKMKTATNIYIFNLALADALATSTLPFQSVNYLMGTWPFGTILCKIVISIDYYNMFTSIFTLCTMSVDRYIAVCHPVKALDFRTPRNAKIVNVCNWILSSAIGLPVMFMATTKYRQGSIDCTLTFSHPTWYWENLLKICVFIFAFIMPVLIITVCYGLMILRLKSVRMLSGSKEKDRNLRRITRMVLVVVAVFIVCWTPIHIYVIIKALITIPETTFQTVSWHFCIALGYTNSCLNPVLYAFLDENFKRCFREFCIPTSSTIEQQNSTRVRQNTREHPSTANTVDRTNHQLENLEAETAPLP
T1 sequence (P32300 whole entry): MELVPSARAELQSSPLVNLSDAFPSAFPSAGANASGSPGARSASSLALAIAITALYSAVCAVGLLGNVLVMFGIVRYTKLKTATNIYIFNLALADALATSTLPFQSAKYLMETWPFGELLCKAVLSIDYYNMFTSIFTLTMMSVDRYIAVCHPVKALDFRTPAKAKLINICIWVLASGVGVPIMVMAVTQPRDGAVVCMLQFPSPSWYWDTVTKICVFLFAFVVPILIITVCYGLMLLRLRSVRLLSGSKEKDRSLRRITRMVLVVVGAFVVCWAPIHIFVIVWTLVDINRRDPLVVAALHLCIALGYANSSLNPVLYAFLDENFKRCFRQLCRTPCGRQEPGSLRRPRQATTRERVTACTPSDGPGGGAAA
T3 sequence (P97266 whole entry): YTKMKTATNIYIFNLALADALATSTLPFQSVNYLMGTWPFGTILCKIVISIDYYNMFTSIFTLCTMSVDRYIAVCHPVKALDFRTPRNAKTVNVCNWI
T2 sequence (P33533 whole entry): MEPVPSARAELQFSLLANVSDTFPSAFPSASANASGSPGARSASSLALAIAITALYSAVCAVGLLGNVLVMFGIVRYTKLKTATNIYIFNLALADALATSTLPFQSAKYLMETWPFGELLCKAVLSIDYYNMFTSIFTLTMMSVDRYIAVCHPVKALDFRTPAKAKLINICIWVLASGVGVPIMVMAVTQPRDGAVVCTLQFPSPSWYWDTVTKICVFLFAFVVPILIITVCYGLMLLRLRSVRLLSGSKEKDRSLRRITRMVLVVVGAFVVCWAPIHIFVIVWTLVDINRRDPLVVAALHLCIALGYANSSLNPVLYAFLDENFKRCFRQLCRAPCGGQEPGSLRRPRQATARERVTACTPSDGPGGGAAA

Molecule	Ratio [1]	IC50 [2] [nM]	IC50 [3] [nM]	IC50 [4] [nM]	IC50 [5] [nM]	IC50 [6] [nM]	IC50 [7] [nM]	IC50 [8] [nM]	Ratio [9]	IC50 [10] [nM]	Ratio [11]	IC50 [12] [nM]	IC50 [13] [nM]
CC[C@H](NC(=O)[C@H](CCSC)NC(=O)[C@H](CC(C)C)NC(=O)[C@H](Cc1c[nH]cn1)NC(=O)[C@H](Cc1ccccc1)NC(=O)[C@H](CCSC)NC(=O)[C@@H](N)Cc1ccc(O)cc1)C(N)=O (H-YMFHLM[Abu]-NH2)	200	–	–	–	–	–	–	–	–	–	–	–	–
H-YAFDVV-NH2	–	7.5	3.9	320	700	–	–	–	–	–	–	–	–
H-YAFQVVG-NH2	–	–	–	–	–	280	3.8	280	185	1.51	73	–	–
C[C@@H](NC(=O)[C@@H](N)Cc1ccc(O)cc1)C(=O)N[C@@H](Cc1ccccc1)C(=O)NCC(=O)N[C@@H](Cc1ccc(O)cc1)C(=O)N1CCC[C@H]1C(=O)N[C@@H](CO)C(N)=O [DERMORPHIN]	–	–	–	1.41	3.2	–	–	–	–	–	–	–	–
H-YMFDLMD-OH	–	–	–	–	–	> 15000	80	> 30000	> 40	380	> 375	55	–
H-YMFHLMD-OH	–	1.3	4.5	6000	1500	–	–	–	–	–	–	–	2.4
H-YMFHLMN-NH2 [listing 1 of 2 here]	–	8	20	245	380	–	–	–	–	–	–	–	18
CC(C)[C@H](NC(=O)[C@H](CCC(=O)O)NC(=O)[C@H](Cc1ccccc1)NC(=O)[C@H](C)NC(=O)[C@@H](N)Cc1ccc(O)cc1)C(=O)N[C@H](C(=O)NCC(N)=O)C(C)C	–	–	3.8	5200	–	–	–	–	–	–	–	–	3.6
H-YMFYLMD-NH2	100	1.02	9.1	100	158	–	–	–	–	–	–	–	5.9
CSCC[C@H](NC(=O)[C@H](CC(C)C)NC(=O)[C@H](Cc1cnc[nH]1)NC(=O)[C@H](Cc1ccccc1)NC(=O)[C@@H](CCSC)NC(=O)[C@@H](N)Cc1ccc(O)cc1)C(=O)N[C@@H](CC(=O)O)C(N)=O (H-Y[dM]FHLMD-NH2)	–	1.3	9	1900	1200	–	–	–	–	–	–	–	6.1
H-YMFHLMN-NH2 [listing 2 of 2 here]	30	–	–	–	–	–	–	–	–	–	–	–	–
C[C@H](NC(=O)[C@@H](N)Cc1ccc(O)cc1)C(=O)N[C@@H](Cc1ccccc1)C(=O)N[C@@H](CC(=O)O)C(N)=O (H-YAFD-NH2)	–	1000	960	160	100	–	–	–	–	–	–	–	–
H-YMFHLMN-OH	39	9	22	350	660	–	–	–	–	–	–	–	16
H-YMFKLMD-NH2	–	–	–	–	–	7500	550	6000	7.5	1000	11	380	–
CC(C)[C@H](NC(=O)[C@H](CCC(=O)O)NC(=O)[C@H](Cc1ccccc1)NC(=O)[C@H](C)NC(=O)[C@@H](N)Cc1ccc(O)cc1)C(=O)N[C@H](C(=O)NCC(=O)O)C(C)C [DELTORPHINE II]	–	5.55	184	9000	–	–	–	–	–	–	–	–	–
H-YMFGLMD-NH2	–	–	–	–	–	100	14	161	62	1.65	11.5	8	–
H-YMFFLMD-NH2	47	1.6	15	75	450	–	–	–	–	–	–	–	11
CC(C)[C@H](NC(=O)[C@H](CC(=O)O)NC(=O)[C@H](Cc1ccccc1)NC(=O)[C@H](C)NC(=O)[C@@H](N)Cc1ccc(O)cc1)C(=O)N[C@H](C(=O)NCC(N)=O)C(C)C	–	–	1.5	420	910	–	–	–	–	–	–	–	1.1
H-YAFDV-NH2	–	220	99	650	640	–	–	–	–	–	–	–	–
CC[C@H](NC(=O)[C@@H](NC(=O)CNC(=O)[C@H](Cc1ccccc1)NC(=O)[C@H](C)NC(=O)[C@@H](N)Cc1ccc(O)cc1)C(C)C)C(=O)N[C@@H](CC(=O)O)C(N)=O (H-YAFGV[Abu]D-NH2)	–	–	–	–	–	130	29.5	130	12	11.1	–	–	–
CC[C@H](NC(=O)[C@H](CCSC)NC(=O)[C@H](CC(C)C)NC(=O)[C@H](Cc1cnc[nH]1)NC(=O)[C@H](Cc1ccccc1)NC(=O)[C@H](CCSC)NC(=O)[C@@H](N)Cc1ccc(O)cc1)C(N)=O (H-YMFHLM[Abu]-NH2)	–	1.5	18	300	360	–	–	–	–	–	–	–	7.4
